In patent US7655689B2, “Fused heterocyclic succinimide compounds and analogs thereof, modulators of nuclear hormone receptor function” (Bristol-Myers Squibb Company, priority 2000, dated 2010):
Like-named read-outs stand apart in the source and are kept apart here.

Legend:
AR [1] = target: T1, AR (Rattus norvegicus, UniProt P15207)
T1 sequence (P15207 1-902): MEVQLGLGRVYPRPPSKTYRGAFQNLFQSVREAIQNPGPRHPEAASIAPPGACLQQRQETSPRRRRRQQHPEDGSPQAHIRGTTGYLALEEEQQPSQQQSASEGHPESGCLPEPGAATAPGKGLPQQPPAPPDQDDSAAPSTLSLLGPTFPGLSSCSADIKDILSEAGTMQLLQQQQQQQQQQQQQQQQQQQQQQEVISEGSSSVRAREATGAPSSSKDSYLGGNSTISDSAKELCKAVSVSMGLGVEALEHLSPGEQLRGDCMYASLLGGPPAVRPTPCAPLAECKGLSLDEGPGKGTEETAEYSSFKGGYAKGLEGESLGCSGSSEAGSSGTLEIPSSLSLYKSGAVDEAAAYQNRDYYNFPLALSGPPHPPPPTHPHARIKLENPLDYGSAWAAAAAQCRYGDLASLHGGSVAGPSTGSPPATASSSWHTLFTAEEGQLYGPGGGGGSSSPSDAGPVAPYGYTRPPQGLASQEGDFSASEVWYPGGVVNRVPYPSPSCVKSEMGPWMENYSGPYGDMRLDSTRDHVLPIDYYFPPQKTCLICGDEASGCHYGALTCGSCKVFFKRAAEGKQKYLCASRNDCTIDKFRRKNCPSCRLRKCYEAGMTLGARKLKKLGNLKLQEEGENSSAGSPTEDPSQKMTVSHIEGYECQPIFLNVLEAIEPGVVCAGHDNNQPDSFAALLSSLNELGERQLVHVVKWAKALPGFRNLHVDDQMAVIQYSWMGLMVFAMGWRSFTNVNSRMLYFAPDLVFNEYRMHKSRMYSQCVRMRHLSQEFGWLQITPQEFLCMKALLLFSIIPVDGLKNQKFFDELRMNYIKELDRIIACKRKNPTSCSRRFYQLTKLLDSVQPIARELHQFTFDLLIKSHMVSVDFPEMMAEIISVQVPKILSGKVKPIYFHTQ
Excerpt: The activity of compounds of the present invention as AR agonists was investigated in an immature male rat model, a recognized test of anabolic effects in muscle and sustaining effects in sex organs for a given compound, as described in L. G. Hershberger et al., Proc. Soc. […] Yak. Ken. Nem.
The basis of this assay lies in the well-defined action of androgenic agents on the maintenance and growth of muscle tissues and sexual accessory organs in animals and man. […] J. Anat. […] I. Quantitative data” Boll.-Soc. Ital. Biol. Sper. […] II. Electron-microscopic observations” Boll.-Soc. Ital. Biol. Sper. […] As described above, the effects of androgens on maintenance of male sexual accessory organs, such as the prostate and seminal vesicles, is well described. Castration results in rapid involution and atrophy of the prostate and seminal vesicles. This effect can be reversed by exogenous addition of androgens. Since both the levator ani muscle and the male sex organs are the tissues most responsive to the effects of androgenic agents, this model is used to determine the androgen dependent reversal of atrophy in the levator ani muscle and the sex accessory organs in immature castrated rats. Sexually mature rats (200-250 g, 6-8 weeks-old, Sprague-Dawley, Harlan) were acquired castrated from the vendor (Taconic). […]

AR [2] = target: T1, AR; remark: listed apart in the source
glucocorticoid receptor = glucocorticoid receptor (Homo sapiens, UniProt P04150); settings: concentration ≦10 μM, A549 cells
Description: A549 cells, which contain endogenous glucocorticoid receptor, were stably transfected with an AP-1 DNA binding site attached to the luciferase gene. […] Cells are plated the day before the assay at approximately 40000 cells/well. […] Activity is measured by analysis in a luminometer as compared to control experiments treated with buffer or dexamethasome.

Chain of glucocorticoid receptor (P04150 whole entry): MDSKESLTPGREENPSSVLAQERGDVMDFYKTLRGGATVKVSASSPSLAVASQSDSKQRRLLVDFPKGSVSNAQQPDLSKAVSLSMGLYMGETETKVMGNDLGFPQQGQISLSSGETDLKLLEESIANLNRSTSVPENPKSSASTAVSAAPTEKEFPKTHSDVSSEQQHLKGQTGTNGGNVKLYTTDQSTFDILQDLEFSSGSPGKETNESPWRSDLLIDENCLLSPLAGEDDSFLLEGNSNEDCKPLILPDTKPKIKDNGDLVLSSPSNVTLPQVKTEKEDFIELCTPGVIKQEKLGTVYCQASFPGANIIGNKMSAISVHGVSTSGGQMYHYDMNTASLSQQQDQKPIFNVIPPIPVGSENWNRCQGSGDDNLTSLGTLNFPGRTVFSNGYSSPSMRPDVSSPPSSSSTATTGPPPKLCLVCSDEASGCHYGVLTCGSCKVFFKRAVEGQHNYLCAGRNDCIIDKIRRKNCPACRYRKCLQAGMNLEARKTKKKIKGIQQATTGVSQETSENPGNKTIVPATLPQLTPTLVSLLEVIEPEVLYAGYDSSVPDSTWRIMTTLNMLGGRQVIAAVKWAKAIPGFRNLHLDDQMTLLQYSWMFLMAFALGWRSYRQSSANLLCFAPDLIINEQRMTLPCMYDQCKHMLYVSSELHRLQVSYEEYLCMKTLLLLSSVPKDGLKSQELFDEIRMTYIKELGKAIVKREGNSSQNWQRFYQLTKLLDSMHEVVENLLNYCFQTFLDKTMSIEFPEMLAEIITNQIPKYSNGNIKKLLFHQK

| SMILES | EC50 (increase in organ weight) (AR [1]; castrated rats) | potency relative to free T (AR [1]; organ weight increase) | ED80 (AR [2]; immature castrated rat model) | EC50 (increase in organ weight) (AR [2]; immature castrated rats) | potency relative to free T (AR [2]; organ weight increase, immature castrated rats) | suppression of activity (% inhibition of the reporter system vs buffer control with 10 ng/ml PMA) (glucocorticoid receptor) |
| --- | --- | --- | --- | --- | --- | --- |
| CCC(=O)O[C@H]1CC[C@H]2[C@@H]3CCC4=CC(=O)CC[C@]4(C)[C@H]3CC[C@]12C [testosterone propionate, Testosterone Propionate] | ~0.03 mg | 10-30 fold | 0.1 mg | ~0.03 mg | 10-30 fold |  |
| C[C@@H]1C[C@H]2[C@@H]3CCC4=CC(=O)C=C[C@]4(C)[C@@]3(F)[C@@H](O)C[C@]2(C)[C@@]1(O)C(=O)CO [dexamethasone] |  |  |  |  |  | ~65% |
